According to patent US8044198B2, “Sirtuin modulating compounds” (Sirtris Pharmaceuticals, Inc., priority 2005, dated 2011):
Read-outs that look alike come from different tables or passages of the source.

Target: T1, SIRT1 (Homo sapiens, UniProt Q96EB6)
T1 sequence (Q96EB6 1-747): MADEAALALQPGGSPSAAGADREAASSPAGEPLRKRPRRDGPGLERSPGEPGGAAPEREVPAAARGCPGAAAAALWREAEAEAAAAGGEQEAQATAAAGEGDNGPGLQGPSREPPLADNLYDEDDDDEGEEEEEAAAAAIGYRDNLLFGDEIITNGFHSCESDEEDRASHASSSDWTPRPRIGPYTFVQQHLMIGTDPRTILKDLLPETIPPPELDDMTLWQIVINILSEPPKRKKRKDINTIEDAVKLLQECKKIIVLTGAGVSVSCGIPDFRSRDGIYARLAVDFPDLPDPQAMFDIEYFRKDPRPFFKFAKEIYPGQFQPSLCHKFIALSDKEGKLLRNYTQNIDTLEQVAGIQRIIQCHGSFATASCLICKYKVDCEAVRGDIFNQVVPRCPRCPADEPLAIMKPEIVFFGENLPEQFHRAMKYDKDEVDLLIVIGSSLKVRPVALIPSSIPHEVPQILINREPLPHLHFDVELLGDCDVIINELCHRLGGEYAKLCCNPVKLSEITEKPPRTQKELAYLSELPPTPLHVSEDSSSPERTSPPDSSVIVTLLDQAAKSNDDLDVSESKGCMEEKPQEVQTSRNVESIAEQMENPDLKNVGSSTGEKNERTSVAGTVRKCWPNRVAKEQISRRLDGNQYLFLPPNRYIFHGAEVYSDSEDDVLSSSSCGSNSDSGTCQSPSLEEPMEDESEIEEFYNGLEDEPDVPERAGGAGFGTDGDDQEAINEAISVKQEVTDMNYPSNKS
Experiment: SIRT1 mass spectrometry (MS) based deacetylation assay; as to FOLD ACT. MS: test concentration or dose not given here
Type: biochemical
Settings: for EC50: mass spectrometry assay, read-out: ED50 MS ASSAY

[1] = fold activation of SIRT1, mass spectrometry assay
[2] = Sirt1 activators, fold activation as determined by MS

| EC50 (SIRT1 activation) [µM] | FOLD ACT. MS [1] | FOLD ACT. MS [2] | EC50 (Sirt1 activators) [µM] | Structure (SMILES) |
| --- | --- | --- | --- | --- |
| 5 to 50 | A (A (Fold activation >250%)) |  |  | CSc1ccc(C(=O)Nc2ccccc2-c2cn3c(CN4CCNCC4)csc3n2)cc1 [Compound 444] |
| 5 to 50 | B (B (Fold Activation <250%)) |  |  | O=C(Cc1ccccc1)Nc1ccccc1-c1cn2c(CN3CCNCC3)csc2n1 [Compound 445] |
| 5 to 50 | B (B (Fold Activation <250%)) |  |  | O=C(Nc1ccccc1-c1cn2c(CN3CCNCC3)csc2n1)c1cccs1 [Compound 446] |
| 5 to 50 | B (B (Fold Activation <250%)) |  |  | COc1cc(OC)cc(C(=O)Nc2cccc(-c3nc4ccncc4o3)c2)c1 [Compound 451] |
| 5 to 50 | B (B (Fold Activation <250%)) |  |  | COc1ccc(C(=O)Nc2cccc(-c3nc4ccncc4o3)c2)c(OC)c1OC [Compound 452] |
| 5 to 50 | B (B (Fold Activation <250%)) |  |  | CN(C)c1cccc(C(=O)Nc2cccc(-c3nc4ccncc4o3)c2)c1 [Compound 453] |
| 5 to 50 | B (B (Fold Activation <250%)) |  |  | COc1ccc(C(=O)Nc2cccc(-c3nc4ccncc4o3)c2)cc1OC [Compound 454] |
| < 5 | B (B (Fold Activation <250%)) |  |  | COc1ccc(C(=O)Nc2ccccc2-c2nc3ccncc3o2)c(OC)c1 [Compound 455] |
| < 5 | B (B (Fold Activation <250%)) |  |  | COc1cc(OC)cc(C(=O)Nc2ccccc2-c2nc3ccncc3o2)c1 [Compound 456] |
| 5 to 50 | B (B (Fold Activation <250%)) |  |  | COc1cc(C(=O)Nc2ccccc2-c2nc3ccncc3o2)cc(OC)c1OC [Compound 457] |
| < 5 | B (B (Fold Activation <250%)) |  |  | CN(C)c1cccc(C(=O)Nc2ccccc2-c2nc3ccncc3o2)c1 [Compound 458] |
|  |  | B (B (Fold Activation <250%)) | < 5 | CN(C)c1ccc(C(=O)Nc2ccccc2-c2nc3ccncc3o2)cc1 [Compound 459] |
|  |  |  | 5 to 50 | O=C(CCc1ccccc1)Nc1ccccc1-c1nc2ccncc2s1 [Compound 460] |
|  |  |  | < 5 | Cc1cc(C(=O)Nc2ccccc2-c2nc3ccncc3s2)n(C(C)(C)C)n1 [Compound 462] |
|  |  |  | 5 to 50 | CC(Oc1ccccc1)C(=O)Nc1ccccc1-c1nc2ccncc2s1 (stereo not shown) [Compound 463] |
|  |  | B (B (Fold Activation <250%)) | 5 to 50 | Cc1cc(C)cc(C(=O)Nc2cc(-c3nc4ncccc4o3)ccn2)c1 [Compound 468] |
|  |  |  | < 5 | COC(=O)c1cccc(NC(=S)Nc2cccc(-c3nc4ccncc4s3)c2)c1 [Compound 473] |
|  |  |  | 5 to 50 | S=C(Nc1ccc(-n2cccn2)cc1)Nc1cccc(-c2nc3ccncc3s2)c1 [Compound 481] |
|  |  | B (B (Fold Activation <250%)) | < 5 | Cc1cc(C)cc(C(=O)Nc2ccccc2-c2nc3ncccc3o2)c1 [Compound 482] |
|  |  | B (B (Fold Activation <250%)) | 5 to 50 | S=C(Nc1ccc(N2CCOCC2)nc1)Nc1cccc(-c2nc3ccncc3s2)c1 [Compound 484] |
|  |  |  | 5 to 50 | S=C(Nc1cccnc1)Nc1cccc(-c2nc3ccncc3s2)c1 [Compound 485] |
|  |  |  | 5 to 50 | COc1ccc(CNC(=S)Nc2cccc(-c3nc4ccncc4s3)c2)cc1 [Compound 498] |
|  |  | A (A (Fold activation >250%)) | < 5 | COc1cc(C(=O)Nc2ccccc2-c2nc3ccccc3[nH]2)ccc1CN1CCOCC1 [Compound 503] |

| EC50 (SIRT1 activation) [µM] | FOLD ACT. MS [1] | FOLD ACT. MS [2] | EC50 (Sirt1 activators) [µM] | Structure (SMILES) |
| --- | --- | --- | --- | --- |
|  |  | B (B (Fold Activation <250%)) | 5 to 50 | CN(C)c1cccc(C(=O)Nc2ccccc2-c2cn3cccnc3n2)c1 [Compound 504] |
|  |  | A (A (Fold activation >250%)) | 5 to 50 | COc1cc(C(=O)Nc2cccc(-c3nc4ncccc4o3)c2)ccc1CN1CCCC1 [Compound 506] |
|  |  | A (A (Fold activation >250%)) | < 5 | COc1ccc(C(=O)Nc2ccc(C)cc2-c2nc3ccccc3[nH]2)cc1OC [Compound 507] |
|  |  | A (A (Fold activation >250%)) | < 5 | O=C(Nc1ccccc1-c1nc2ccccc2[nH]1)c1cnc2ccccc2n1 [Compound 508] |
|  |  | A (A (Fold activation >250%)) | < 5 | O=C(Nc1ccccc1-c1cn2c(CN3CCNCC3)csc2n1)c1c[nH]c2ccccc12 [Compound 510] |
|  |  | A (A (Fold activation >250%)) | < 5 | O=C(Nc1ccccc1-c1cn2c(CN3CCNCC3)csc2n1)c1c[nH]nc1-c1ccccc1 [Compound 512] |
|  |  | A (A (Fold activation >250%)) | < 5 | O=C(Nc1ccccc1-c1cn2cc(CN3CCNCC3)sc2n1)c1cnc2ccccc2n1 [Compound 513] |
|  |  | B (B (Fold Activation <250%)) | 5 to 50 | O=C(Nc1cccc(-c2nc3nc(CN4CCNCC4)ccc3o2)c1)c1cnc2ccccc2n1 [Compound 514] |
|  |  | B (B (Fold Activation <250%)) | < 5 | COc1ccc(C(=O)Nc2ccc(-c3nc4cnccc4s3)s2)c(OC)c1 [Compound 515] |
|  |  | B (B (Fold Activation <250%)) | < 5 | CN(C)c1cccc(C(=O)Nc2ccc(-c3nc4cnccc4s3)s2)c1 [Compound 518] |
|  |  | B (B (Fold Activation <250%)) | < 5 | CN(C)c1ccc(C(=O)Nc2ccc(-c3nc4cnccc4s3)s2)cc1 [Compound 519] |
|  |  | B (B (Fold Activation <250%)) | < 5 | COc1cc(C(=O)Nc2ccc(-c3nc4cnccc4s3)s2)cc(OC)c1OC [Compound 520] |
|  |  | B (B (Fold Activation <250%)) | < 5 | COc1cc(OC)cc(C(=O)Nc2ccccc2-c2nc3cccnc3[nH]2)c1 [Compound 521] |
|  |  | A (A (Fold activation >250%)) | 5 to 50 | COc1cc(C(=O)Nc2ccccc2-c2nc3cccnc3[nH]2)cc(OC)c1OC [Compound 522] |
|  |  | B (B (Fold Activation <250%)) | 5 to 50 | COc1cc(C)ccc1C(=O)Nc1ccccc1-c1nc2cccnc2[nH]1 [Compound 523] |
|  |  | B (B (Fold Activation <250%)) | < 5 | CN(C)c1cccc(C(=O)Nc2ccccc2-c2nc3cccnc3[nH]2)c1 [Compound 524] |
|  |  | B (B (Fold Activation <250%)) | < 5 | COc1ccc(C(=O)Nc2ccccc2-c2nc3cccnc3[nH]2)cc1OC [Compound 525] |
|  |  | A (A (Fold activation >250%)) | < 5 | O=C(Nc1ccccc1-c1nc2cccnc2[nH]1)c1ccc(N2CCOCC2)cc1 [Compound 526] |
|  |  | B (B (Fold Activation <250%)) | < 5 | O=C(Nc1ccccc1-c1nc2cccnc2[nH]1)c1ccc(N2CCCCC2)cc1 [Compound 527] |
|  |  | B (B (Fold Activation <250%)) | < 5 | COc1ccc(C(=O)Nc2ccccc2-c2nc3cccnc3[nH]2)cc1C(F)(F)F [Compound 528] |
|  |  | B (B (Fold Activation <250%)) | < 5 | O=C(Nc1ccccc1-c1nc2cccnc2[nH]1)c1cccc(OC(F)(F)F)c1 [Compound 529] |
|  |  | B (B (Fold Activation <250%)) | < 5 | COc1cccc(C(=O)Nc2ccccc2-c2nc3cccnc3[nH]2)c1C [Compound 530] |
|  |  | B (B (Fold Activation <250%)) | < 5 | COc1ccc(C(=O)Nc2ccccc2-c2nc3cccnc3[nH]2)cc1 [Compound 531] |
